Results from patent US9062041B2 (Bayer Intellectual Property GmbH, priority 2011, dated 2015).

What was measured:
Type in all cases: cell-based
[1] = molecular target: EP2 subtype of the human PGE2 receptor (Homo sapiens, UniProt P43116); test: cAMP antagonism test on the human EP2 receptor (HTRF cAMP detection); settings: hEP2 receptor, read-out: Antagonism hEP2 IC50
Outline: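 Cells expressing human EP2 preincubated 20 min at RT with compound (0.8 nM–16.5 μM), then stimulated 60 min with PGE2 (3× solution 1.5 nM) in PBS-IBMX. After 20 min lysis, cAMP measured by competitive HTRF with cAMP-d2 and Eu cryptate anti-cAMP antibody (665/620 nm ratio).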

[2] = molecular target: EP4 subtype of the human PGE2 receptor (Homo sapiens, UniProt P35408); test: cAMP antagonism test on the human EP4 receptor (HTRF cAMP detection); settings: selectivity towards hEP4, IC50 measured by cAMP antagonism test
Outline: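 Cells expressing human EP4 preincubated 20 min at RT with compound (0.8 nM–16.5 μM), then stimulated with PGE2 (0.3 nM in 3× solution, with IBMX) 60 min at RT. After lysis, cAMP measured by HTRF competition (665/620 nm ratio); antagonism seen as rise in FRET signal.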

human PGD receptor = molecular target: T1, human PGD receptor (Homo sapiens, UniProt Q13258); test: cAMP antagonism test on the human prostaglandin D receptor (HTRF cAMP detection); settings: selectivity towards hDP, IC50 measured by cAMP antagonism test
T1 sequence (Q13258 1-359): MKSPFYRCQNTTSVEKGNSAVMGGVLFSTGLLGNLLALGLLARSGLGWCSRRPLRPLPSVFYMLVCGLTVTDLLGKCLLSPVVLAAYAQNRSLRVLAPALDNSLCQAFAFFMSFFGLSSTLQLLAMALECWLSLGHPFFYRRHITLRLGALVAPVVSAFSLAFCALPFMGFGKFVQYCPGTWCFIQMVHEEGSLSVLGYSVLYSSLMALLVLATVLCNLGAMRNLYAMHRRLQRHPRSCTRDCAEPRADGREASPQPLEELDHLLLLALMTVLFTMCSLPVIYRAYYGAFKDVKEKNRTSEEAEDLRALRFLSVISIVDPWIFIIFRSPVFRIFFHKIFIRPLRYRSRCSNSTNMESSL
Outline: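 Cells pre-mixed with cAMP-d2 were preincubated with compound (0.8 nM–16.5 μM) for 20 min at RT, then stimulated with 3× PGD2 solution (6 nM, in PBS-IBMX) for 30 min at RT. After lysis (20 min), HTRF read at 665/620 nm; antagonism seen as rise in FRET ratio.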

Chain of EP4 subtype of the human PGE2 receptor (P35408 whole entry): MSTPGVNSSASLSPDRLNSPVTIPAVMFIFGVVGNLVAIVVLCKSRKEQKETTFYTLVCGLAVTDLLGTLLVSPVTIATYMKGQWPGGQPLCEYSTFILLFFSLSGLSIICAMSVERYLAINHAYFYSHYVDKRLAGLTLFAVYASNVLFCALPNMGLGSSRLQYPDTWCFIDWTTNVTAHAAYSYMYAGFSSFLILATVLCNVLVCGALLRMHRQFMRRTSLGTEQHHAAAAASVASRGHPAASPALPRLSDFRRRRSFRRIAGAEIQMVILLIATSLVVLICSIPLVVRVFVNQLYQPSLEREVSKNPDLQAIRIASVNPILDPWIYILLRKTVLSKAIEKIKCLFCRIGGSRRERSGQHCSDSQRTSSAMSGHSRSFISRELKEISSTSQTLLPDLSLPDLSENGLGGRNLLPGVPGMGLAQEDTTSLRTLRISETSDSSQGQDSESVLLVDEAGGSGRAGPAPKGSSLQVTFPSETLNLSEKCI
Chain of EP2 subtype of the human PGE2 receptor (P43116 whole entry): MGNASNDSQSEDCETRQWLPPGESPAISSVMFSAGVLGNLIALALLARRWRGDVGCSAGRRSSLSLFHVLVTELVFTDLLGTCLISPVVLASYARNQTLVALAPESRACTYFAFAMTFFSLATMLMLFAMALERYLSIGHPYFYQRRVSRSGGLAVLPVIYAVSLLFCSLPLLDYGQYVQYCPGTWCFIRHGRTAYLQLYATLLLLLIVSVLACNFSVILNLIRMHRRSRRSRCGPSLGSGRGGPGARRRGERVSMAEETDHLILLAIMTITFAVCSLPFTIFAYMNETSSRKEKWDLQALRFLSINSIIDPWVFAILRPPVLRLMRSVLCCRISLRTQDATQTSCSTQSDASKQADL

Structure (SMILES)	IC50 [1]	Selectivity hEP2/hEP4 [2]	Selectivity hEP2/hDP (human PGD receptor)
Cc1c(C(=O)NCCS(C)(=O)=O)ccc2nn(CC3CCN(C(=O)c4ccc(-c5ccc(F)cc5F)cc4)CC3)cc12 [Example 398, 2-({1-[(2′,4′-difluorobiphenyl-4-yl)carbonyl]piperidin-4-yl}methyl)-N-(2-mesylethyl)-4-methyl-2H-indazol-5-carboxamide]	18.2 nM	xxx (xxx > 100)	xxx (xxx > 100)
Cc1c(C(=O)NCC2CCCCO2)ccc2nn(CC3CCN(C(=O)c4ccc(Oc5ccc(C(F)(F)F)cc5)cc4)CC3)cc12 (single isomer, unassigned) [Example 417, (S or R)-4-methyl-N-(3,4,5,6-tetrahydro-2H-pyran-2-ylmethyl)-2-[(1-{4-[4-(trifluoromethyl)phenoxy]benzoyl}piperidin-4-yl)methyl]-2H-indazol-5-carboxamide]	9.75 nM	xxx (xxx > 100)	xxx (xxx > 100)
Cc1c(C(=O)NCCOC(C)(C)C)ccc2nn(CC3CCN(C(=O)c4ccc(Oc5ccc(C(F)(F)F)cc5)cc4)CC3)cc12 [Example 114, N-(2-tert-butoxyethyl)-4-methyl-2-[(1-{4-[4-(trifluoromethyl)-phenoxy]benzoyl}-piperidin-4-yl)methyl]-2H-indazol-5-carboxamide]	6.08 nM	xxx (xxx > 100)	xxx (xxx > 100)
COCCNC(=O)c1ccc2nn(CC3CCN(C(=O)c4ccc(-c5ncco5)cc4)CC3)cc2c1C [Example 35, N-(2-methoxyethyl)-4-methyl-2-({1-[4-(oxazol-2-yl)-benzoyl]piperidin-4-yl}methyl)-2H-indazol-5-carboxamide]	69.2 nM	xxx (xxx > 100)	xxx (xxx > 100)
COCCNC(=O)c1ccc2nn(CC3CCN(C(=O)c4ccc(OC(C)C)cc4F)CC3)cc2c1C [Example 362, 2-{[1-(2-fluoro-4-isopropoxybenzoyl)piperidin-4-yl]methyl}-N-(2-methoxy-ethyl)-4-methyl-2H-indazol-5-carboxamide]	15.1 nM	xxx (xxx > 100)	xxx (xxx > 100)
COCCNC(=O)c1ccc2nn(CC3CCN(C(=O)c4ccc(C)cc4F)CC3)cc2c1C [Example 9, 2-{[1-(2-fluoro-4-methylbenzoyl)piperidin-4-yl]methyl}-N-(2-methoxyethyl)-4-methyl-2H-indazol-5-carboxamide]	17.2 nM	xxx (xxx > 100)	xxx (xxx > 100)
Cc1cc2nn(CC3CN(C(=O)c4ccc(Cl)cc4)C3)cc2cc1C(=O)NCCOC(F)(F)F [Example 197, 2-{[1-(4-chlorobenzoyl)azetidin-3-yl]methyl}-6-methyl-N-[2-(trifluoromethoxy)ethyl]-2H-indazol-5-carboxamide]	63.2 nM	xxx (xxx > 100)	xxx (xxx > 100)
COCCNC(=O)c1ccc2nn(CC3CCN(C(=O)c4ccc(-c5ccc(OC)cc5)cc4)CC3)cc2c1C [Example 351, 2-({1-[(4′-methoxybiphenyl-4-yl)carbonyl]piperidin-4-yl}methyl)-N-(2-methoxy-ethyl)-4-methyl-2H-indazol-5-carboxamide]	6.84 nM	xxx (xxx > 100)	xxx (xxx > 100)
Cc1c(C(=O)NCCN2CCOCC2)ccc2nn(CC3CCN(C(=O)c4ccc(C(F)(F)F)cc4F)CC3)cc12 [Example 58, 2-({1-[2-fluoro-4-(trifluoromethyl)benzoyl]piperidin-4-yl}methyl)-4-methyl-N-(2-morpholinoethyl)-2H-indazol-5-carboxamide]	1080 nM	xx (xx: 10-100)	xx (xx: 10-100)
Cc1c(C(=O)NCCOC(F)(F)F)ccc2nn(CC3CCN(C(=O)c4ccc(-c5ccc(F)cc5)cc4)CC3)cc12 [Example 109, 2-({1-[(4′-fluoro-biphenyl-4-yl)-carbonyl]piperidin-4-yl}-methyl)-4-methyl-N-[2-(trifluoro-methoxy)ethyl]-2H-indazol-5-carboxamide]	9.53 nM	xxx (xxx > 100)	xxx (xxx > 100)
Cc1c(C(=O)NCCOCC(F)(F)F)ccc2nn(CC3CN(C(=O)c4ccc(Oc5ccc(C(F)(F)F)cc5)cc4)C3)cc12 [Example 163, 4-methyl-N-[2-(2,2,2-trifluoroethoxy)ethyl]-2-[(1-{4-[4-(trifluoromethyl)phenoxy]benzoyl}azetidin-3-yl)methyl]-2H-indazol-5-carboxamide]	6.8 nM	xxx (xxx > 100)	xxx (xxx > 100)
Cc1c(C(=O)NCCOC2CCC2)ccc2nn(CC3CN(C(=O)c4ccc(OC(F)(F)F)cc4)C3)cc12 [Example 137, N-[2-(cyclobutyloxy)ethyl]-4-methyl-2-({1-[4-(trifluoromethoxy)benzoyl]azetidin-3-yl}methyl)-2H-indazol-5-carboxamide]	7.65 nM	xxx (xxx > 100)	xxx (xxx > 100)
COCCNC(=O)c1ccc2nn(C[C@H]3CCN(C(=O)c4ccc(Cl)cc4)C3)cc2c1C [Example 222, 2-{[(S)-1-(4-chlorobenzoyl)pyrrolidin-3-yl]methyl}-N-(2-methoxyethyl)-4-methyl-2H-indazol-5-carboxamide]	40.9 nM	xxx (xxx > 100)	xxx (xxx > 100)
Cc1cc2nn(CC3CCN(C(=O)c4ccc(OC(F)(F)F)cc4)CC3)cc2cc1C(=O)NCCN1CCOCC1 [Example 75, 6-methyl-N-(2-morpholinoethyl)-2-({1-[4-(trifluorometh-oxy)benzoyl]piperidin-4-yl}methyl)-2H-indazol-5-carboxamide]	67 nM	xxx (xxx > 100)	xxx (xxx > 100)
Cc1cc2nn(CC3CCN(C(=O)c4ccc(C(F)(F)F)cc4)CC3)cc2cc1C(=O)NCCN1CCOCC1 [Example 79, 6-methyl-N-(2-morpholinoethyl)-2-({1-[4-(trifluoro-methyl)benzoyl]-piperidin-4-yl}-methyl)-2H-indazol-5-carboxamide]	125 nM	xxx (xxx > 100)	xxx (xxx > 100)
COCCNC(=O)c1ccc2nn(CC3CCN(C(=O)c4ccc(-c5ccc(F)cc5Cl)cc4)CC3)cc2c1C [Example 384, 2-({1-[(2′-chloro-4′-fluorobiphenyl-4-yl)carbonyl]piperidin-4-yl}methyl)-N-(2-methoxyethyl)-4-methyl-2H-indazol-5-carboxamide]	3.95 nM	xxx (xxx > 100)	xxx (xxx > 100)
COCCNC(=O)c1ccc2nn(CC3CCN(C(=O)c4ccc(-n5cccn5)cc4)CC3)cc2c1C [Example 38, N-(2-methoxyethyl)-4-methyl-2-({1-[4-(1H-pyrazol-1-yl)-benzoyl]piperidin-4-yl}methyl)-2H-indazol-5-carboxamide]	28.1 nM	xxx (xxx > 100)	xxx (xxx > 100)
COCCNC(=O)c1ccc2nn(CC3CCN(C(=O)c4ccc(-c5ccc(F)cc5C)cc4)CC3)cc2c1C [Example 376, 2-({1-[(4′-fluoro-2′-methylbiphenyl-4-yl)carbonyl]piperidin-4-yl}methyl)-N-(2-methoxyethyl)-4-methyl-2H-indazol-5-carboxamide]	3.59 nM	xxx (xxx > 100)	xxx (xxx > 100)
COCCNC(=O)c1ccc2nn(CC3CCN(C(=O)c4ccc(-c5ccncc5)c(C)c4)CC3)cc2c1C [Example 393, N-(2-methoxyethyl)-4-methyl-2-({1-[3-methyl-4-(4-pyridyl)benzoyl]piperidin-4-yl}methyl)-2H-indazol-5-carboxamide]	50 nM	xxx (xxx > 100)	xxx (xxx > 100)
COCCNC(=O)c1ccc2nn(CC3CCN(C(=O)c4cccc(C)c4)CC3)cc2c1C [Example 27, N-(2-methoxyethyl)-4-methyl-2-{[1-(3-methylbenzoyl)-piperidin-4-yl]-methyl}-2H-indazol-5-carboxamide]	19.3 nM	xxx (xxx > 100)	xxx (xxx > 100)
COC(C)CNC(=O)c1ccc2nn(CC3CN(C(=O)c4ccc(Cl)cc4)C3)cc2c1C (single isomer, unassigned) [Example 139, (R or S)-2-{[1-(4-chlorobenzoyl)azetidin-3-yl]methyl}-N-(2-methoxypropyl)-4-methyl-2H-indazol-5-carboxamide]	419 nM	xx (xx: 10-100)	xx (xx: 10-100)
